Reference: ChEMBL document CHEMBL1149662, “Design and synthesis of a library of tertiary amides: evaluation as mimetics of the melanocortins' active core” (Bioorg Med Chem, 2007)

What was measured:
Melanocortin receptor 4 = Melanocortin receptor 4 (Homo sapiens, UniProt P32245); test: Displacement of [125I]NDP-MSH from human recombinant MC4 receptor expressed in Sf9 cells
Melanocortin receptor 3 = Melanocortin receptor 3 (Homo sapiens, UniProt P41968); test: Displacement of [125I]NDP-MSH from human recombinant MC3 receptor expressed in Sf9 cells
[1] = target: Melanocyte-stimulating hormone receptor (Mus musculus, UniProt Q01727); test: Displacement of [125I]NDP-MSH from MC1 receptor in mouse B16 cells; type: cell-based
Melanocortin receptor 5 = Melanocortin receptor 5 (Homo sapiens, UniProt P33032); test: Displacement of [125I]NDP-MSH from human recombinant MC5 receptor expressed in Sf9 cells
Chain of Melanocortin receptor 5 (P33032 whole entry): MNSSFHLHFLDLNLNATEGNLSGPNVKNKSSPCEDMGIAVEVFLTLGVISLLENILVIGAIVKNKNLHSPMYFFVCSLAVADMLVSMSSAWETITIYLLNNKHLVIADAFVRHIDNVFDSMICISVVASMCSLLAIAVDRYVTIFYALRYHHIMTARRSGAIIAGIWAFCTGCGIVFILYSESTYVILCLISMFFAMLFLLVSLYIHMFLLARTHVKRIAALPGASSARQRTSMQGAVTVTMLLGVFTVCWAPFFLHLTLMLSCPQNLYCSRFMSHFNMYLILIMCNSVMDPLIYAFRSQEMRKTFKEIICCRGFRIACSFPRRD

Chain of Melanocortin receptor 3 (P41968 whole entry): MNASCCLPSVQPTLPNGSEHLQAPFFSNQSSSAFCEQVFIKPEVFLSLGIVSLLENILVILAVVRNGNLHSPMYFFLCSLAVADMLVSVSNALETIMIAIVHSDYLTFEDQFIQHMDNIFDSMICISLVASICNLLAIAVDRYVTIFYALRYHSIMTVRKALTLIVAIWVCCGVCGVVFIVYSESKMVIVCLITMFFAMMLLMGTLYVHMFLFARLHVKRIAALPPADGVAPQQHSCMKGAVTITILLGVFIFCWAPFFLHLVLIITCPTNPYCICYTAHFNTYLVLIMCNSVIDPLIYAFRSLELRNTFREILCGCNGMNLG
Chain of Melanocyte-stimulating hormone receptor (Q01727 whole entry): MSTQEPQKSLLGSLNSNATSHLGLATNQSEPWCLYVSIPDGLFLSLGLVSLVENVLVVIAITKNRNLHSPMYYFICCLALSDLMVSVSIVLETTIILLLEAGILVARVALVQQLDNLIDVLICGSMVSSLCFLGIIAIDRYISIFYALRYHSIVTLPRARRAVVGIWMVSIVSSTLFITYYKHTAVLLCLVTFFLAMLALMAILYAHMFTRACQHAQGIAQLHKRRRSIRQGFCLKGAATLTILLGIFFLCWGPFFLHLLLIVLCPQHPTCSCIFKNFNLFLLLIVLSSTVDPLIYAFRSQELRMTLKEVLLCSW
Chain of Melanocortin receptor 4 (P32245 whole entry): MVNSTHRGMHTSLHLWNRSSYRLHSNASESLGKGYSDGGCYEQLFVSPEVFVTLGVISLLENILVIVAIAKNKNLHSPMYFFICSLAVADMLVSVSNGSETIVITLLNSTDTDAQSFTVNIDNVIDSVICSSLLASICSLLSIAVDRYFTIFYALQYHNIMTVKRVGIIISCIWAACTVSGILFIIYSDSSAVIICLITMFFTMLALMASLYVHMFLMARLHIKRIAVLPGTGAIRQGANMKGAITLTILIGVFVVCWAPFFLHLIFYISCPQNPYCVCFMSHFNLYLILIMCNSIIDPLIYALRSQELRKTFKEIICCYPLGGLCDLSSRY

Ki (Melanocortin receptor 4)	Ki (Melanocortin receptor 3)	Ki [1]	Ki (Melanocortin receptor 5)	Compound
4.4 µM	27 µM	2.5 µM	18 µM	NCC1CCC(CN(Cc2ccccc2)C(=O)CCCc2c[nH]c3ccccc23)CC1 (stereo not drawn)
2 µM	17 µM	0.96 µM	8.7 µM	NC1CCC(CC2CCC(N(C/C(Cl)=C/c3ccccc3)C(=O)CCCc3c[nH]c4ccccc34)CC2)CC1 (stereo in doubt; form 2)
38 µM	23 µM	3.5 µM	37 µM	N=C(N)NC1CCC(CC2CCC(N(C/C=C/c3ccccc3)C(=O)CCCc3c[nH]c4ccccc34)CC2)CC1 (stereo not drawn)
8.3 µM	9.4 µM	0.42 µM	18 µM	NC1CCC(CC2CCC(N(Cc3ccccc3)C(=O)CCCc3c[nH]c4ccccc34)CC2)CC1 (stereo in doubt; 10d-40-8)
7.1 µM	30 µM	1.8 µM	56 µM	COc1ccc2c(c1)c(CC(=O)N(CCCCN)C/C(C)=C/c1ccccc1)c(C)n2C(=O)c1ccc(Cl)cc1
4.9 µM	2.1 µM	6 µM	3.4 µM	NCCN(C(=O)COc1ccc2ccccc2c1)C1CCC2(CCCCC2)CC1
1.9 µM	23 µM	1.1 µM	15 µM	NC1CCC(CC2CCC(N(Cc3c(F)cccc3Cl)C(=O)CCCc3c(Cc4ccc(O)cc4)[nH]c4ccccc34)CC2)CC1 (stereo not drawn)
2.6 µM	25 µM	2.5 µM	7.2 µM	NC1CCC(CC2CCC(N(Cc3c(Cl)cccc3Cl)C(=O)CCCc3c[nH]c4ccccc34)CC2)CC1 (stereo not drawn)
3.8 µM	28 µM	4 µM	3.2 µM	NCCCCCCCN(Cc1ccccc1)C(=O)CCCc1c[nH]c2ccccc12
1.3 µM	94 µM	0.94 µM	18 µM	COc1cc(Br)c(/C=C/CN(C(=O)CCCc2c(Cc3ccc(O)cc3)[nH]c3ccccc23)C2CCC(CC3CCC(N)CC3)CC2)cc1OC (stereo not drawn)
42 µM	16 µM	4 µM	29 µM	NCCN(C(=O)Cc1c[nH]c2ccccc12)C1CCc2ccccc2C1 (stereo not drawn)
149 µM	65 µM	14 µM	17 µM	N=C(N)NCCN(Cc1ccc2ccccc2c1)C(=O)CCc1c[nH]c2ccccc12
1.9 µM	8.3 µM	0.63 µM	11 µM	COc1cc(Cl)c(CN(C(=O)CCCc2c(Cc3ccc(O)cc3)[nH]c3ccccc23)C2CCC(CC3CCC(N)CC3)CC2)cc1OC (stereo not drawn)
3.5 µM	22 µM	1.9 µM	6.7 µM	NC1CCC(CC2CCC(N(C/C(Cl)=C/c3ccccc3)C(=O)COc3ccc4ccccc4c3)CC2)CC1 (stereo in doubt; form 5)
2.1 µM	26 µM	2.1 µM	12 µM	CCOc1cc(CN(C(=O)CCCc2c(Cc3ccc(O)cc3)[nH]c3ccccc23)C2CCC(CC3CCC(N)CC3)CC2)ccc1OC (stereo not drawn)
23 µM	172 µM	17 µM	12 µM	NCCCN(C/C=C/c1ccccc1)C(=O)c1c[nH]c2ccccc12
1.2 µM	4.3 µM	0.69 µM	1.7 µM	CC1CC(CC2CCC(N(Cc3ccccc3)C(=O)CCCc3c[nH]c4ccccc34)C(C)C2)CCC1N (stereo in doubt; form 1)
3.8 µM	12 µM	1.3 µM	5.6 µM	CC1CC(CC2CCC(N(Cc3ccccc3)C(=O)CCCc3c[nH]c4ccccc34)C(C)C2)CCC1N (stereo in doubt; form 4)
9.2 µM	16 µM	2.7 µM	7.7 µM	NC1CCC(CC2CCC(N(C/C=C/c3ccccc3)C(=O)CCCc3c[nH]c4ccccc34)CC2)CC1 (stereo not drawn)
7.7 µM	64 µM	5.6 µM	9.1 µM	CC1CC(CC2CCC(N(C/C(Cl)=C/c3ccccc3)C(=O)CCCc3c[nH]c4ccccc34)C(C)C2)CCC1N (stereo in doubt; form 1)
3.8 µM	26 µM	2.4 µM	21 µM	NCCCCCCN(C/C(Cl)=C/c1ccccc1)C(=O)CCCc1c[nH]c2ccccc12
5.7 µM	30 µM	3.3 µM	18 µM	NC1CCCC(N(Cc2ccccc2)C(=O)CCCc2c[nH]c3ccccc23)C1 (stereo not drawn)
14 µM	25 µM	6.1 µM	46 µM	NCCCCCN(C(=O)CCCc1c[nH]c2ccccc12)C1C2CC3CC(C2)CC1C3 (stereo not drawn)
3.4 µM	43 µM	13 µM	3.8 µM	NCCCCCCN(Cc1ccccc1)C(=O)CCCc1c[nH]c2ccccc12
179 µM	204 µM	8.3 µM	8.3 µM	N=C(N)NCCN(Cc1ccc2ccccc2c1)C(=O)CCCc1c[nH]c2ccccc12
16 µM	45 µM	17 µM	25 µM	NCCCN(Cc1ccccc1)C(=O)CCCc1c[nH]c2ccccc12

Ki (Melanocortin receptor 4)	Ki (Melanocortin receptor 3)	Ki [1]	Ki (Melanocortin receptor 5)	Compound
1.5 µM	55 µM	1 µM	36 µM	NC1CCC(CC2CCC(N(Cc3ccccc3F)C(=O)CCCc3c(Cc4ccc(O)cc4)[nH]c4ccccc34)CC2)CC1 (stereo not drawn)
150 µM	228 µM	35 µM	28 µM	N=C(N)NCCCN(Cc1ccc2ccccc2c1)C(=O)Cc1c[nH]c2ccccc12
7.8 µM	8.1 µM	2.3 µM	6.9 µM	COc1cc(Br)c(CN(C(=O)CCCc2c[nH]c3ccccc23)[C@H]2CC[C@@H](C[C@H]3CC[C@@H](N)CC3)CC2)cc1OC
6.4 µM	33 µM	2.5 µM	10 µM	NCCCN(C/C=C/c1ccccc1)C(=O)Cc1ccc2ccccc2c1
16 µM	12 µM	5.9 µM	267 µM	NCCCN(Cc1ccc2ccccc2c1)C(=O)Cc1ccc2ccccc2c1
3.7 µM	36 µM	2.3 µM	2.1 µM	NCCCCCCN(Cc1ccccc1)C(=O)CCCc1c(Cc2ccc(O)cc2)[nH]c2ccccc12
7.3 µM	44 µM	2.6 µM	9.7 µM	NCc1ccc(CN(C/C=C/c2ccccc2)C(=O)CCCc2c[nH]c3ccccc23)cc1
2.1 µM	29 µM	2.8 µM	10 µM	NC1CCCC(N(C/C(Cl)=C/c2ccccc2)C(=O)CCCc2c[nH]c3ccccc23)C1 (stereo not drawn)
3.6 µM	24 µM	2.7 µM	8.7 µM	NCC1CCCC(CN(Cc2ccccc2)C(=O)CCCc2c[nH]c3ccccc23)C1 (stereo not drawn)
4.7 µM	22 µM	3.5 µM	8.7 µM	C/C(=C/c1ccccc1)CN(CCCCCN)C(=O)CCCc1c[nH]c2ccccc12
6.8 µM	7.4 µM	1 µM	4.3 µM	NCCCN(C/C(Cl)=C/c1ccccc1)C(=O)C(=O)c1c[nH]c2ccccc12
7.4 µM	42 µM	5 µM	29 µM	NCCCCCCCN(C/C(Cl)=C/c1ccccc1)C(=O)CCCc1c[nH]c2ccccc12
11 µM	31 µM	1.8 µM	52 µM	NC1CCCC(NC(=O)N[C@H]2CC[C@H](N(Cc3ccccc3)C(=O)CCCc3c[nH]c4ccccc34)CC2)C1 (stereo partly drawn)
3.4 µM	78 µM	2.9 µM	16 µM	Cc1cccc(CN(C(=O)CCCc2c(Cc3ccc(O)cc3)[nH]c3ccccc23)C2CCC(CC3CCC(N)CC3)CC2)c1 (stereo not drawn)
2.3 µM	24 µM	2.1 µM	5.2 µM	NC1CCC(CC2CCC(N(CCc3c(F)cccc3Cl)C(=O)CCCc3c[nH]c4ccccc34)CC2)CC1 (stereo not drawn)
3.7 µM	6.6 µM	1.7 µM	6.9 µM	CC1CC(CC2CCC(N(Cc3ccccc3)C(=O)CCCc3c[nH]c4ccccc34)C(C)C2)CCC1N (stereo in doubt; form 3)
16 µM	36 µM	3 µM	2.2 µM	NCCCCCN(C/C=C\c1ccccc1)C(=O)CCCc1c[nH]c2ccccc12
32 µM	5.7 µM	5 µM	13 µM	NCCCN(CCCc1ccccc1)C(=O)Cc1c[nH]c2ccccc12
2.5 µM	33 µM	1.6 µM	11 µM	NCC1CCC(CN(C/C(Cl)=C/c2ccccc2)C(=O)CCCc2c[nH]c3ccccc23)CC1 (stereo not drawn)
6 µM	21 µM	0.61 µM	3.2 µM	NC1CCC(CC2CCC(N(C/C(Cl)=C/c3ccccc3)C(=O)CCCc3c[nH]c4ccccc34)CC2)CC1 (stereo in doubt; form 5)
16 µM	12 µM	2.6 µM	11 µM	CC(c1ccc(C(F)(F)F)cc1)N(CCCCCN)C(=O)Cc1c[nH]c2ccccc12 (stereo not drawn)
6.2 µM	9.1 µM	1.8 µM	58 µM	C/C(=C\c1ccccc1)CN(CCCN)C(=O)C(=O)c1c[nH]c2ccccc12
4.3 µM	249 µM	3.2 µM	85 µM	CSc1ccc(CN(C(=O)CCCc2c[nH]c3ccccc23)C2CCC(CC3CCC(N)CC3)CC2)cc1 (stereo not drawn)
7.3 µM	59 µM	2.7 µM	37 µM	N[C@H]1CC[C@H](NC(=O)NC2CCCC(N(Cc3ccccc3)C(=O)CCCc3c[nH]c4ccccc34)C2)CC1 (stereo partly drawn)
25 µM	33 µM	6.8 µM	34 µM	CCN(CC)c1ccc(CN(CCCCCN)C(=O)CCCc2c[nH]c3ccccc23)cc1
5.4 µM	32 µM	2.4 µM	85 µM	NCCCCN(C/C(Cl)=C/c1ccccc1)C(=O)CCCc1c[nH]c2ccccc12
